From patent US8906826B2, “Herbicidal compositions comprising 4-amino-3-chloro-5-fluoro-6-(4-chloro-2-fluoro-3-methoxyphenyl) pyridine-2-carboxylic acid or a derivative thereof and imidazolinones” (Dow AgroSciences, LLC, priority 2012, dated 2014)

What was measured:
LEFCH = assay: Postemergence foliar-applied, direct seeded rice weeds (Example I); type: in vivo, Leptochloa chinensis (L.) Nees
From the text: Seeds or nutlets of the desired test plant species were planted in a soil matrix prepared by mixing a loam or sandy loam soil (e.g., 28.6 percent silt, 18.8 percent clay, and 52.6 percent sand, with a pH of about 5.8 and an organic matter content of about 1.8 percent) and calcareous grit in an 80 to 20 ratio. The soil matrix was contained in plastic pots with a volume of 1 quart and a surface area of 83.6 cm^2. When required to ensure good germination and healthy plants, a fungicide treatment and/or other chemical or physical treatment was applied. The plants were grown for 8-22 days in a greenhouse with an approximate 14 h photoperiod which was maintained at about 29° C. during the day and 26° C. during the night. Nutrients (Peters Excel® 15-5-15 5-Ca 2-Mg and iron chelate) were applied in the irrigation solution as needed and water was added on a regular basis. Supplemental lighting was provided with overhead metal halide 1000-Watt lamps as necessary. The plants were employed for testing when they reached the first through fourth true leaf stage.
(§1) Treatments consisted of the acid or esters of 4-amino-3-chloro-5-fluoro-6-(4-chloro-2-fluoro-3-methoxy-phenyl)pyridine-2-carboxylic acid (Compound A), each formulated as an SC (suspension concentrate), and various herbicidal components alone and in combination. Forms of compound A were applied on an acid equivalent basis.
Other herbicidal components were applied on an acid equivalent basis and include acetolactate synthase (ALS)-inhibiting herbicides (imidazolinone chemical class) imazethapyr ammonium salt formulated as Newpath®, imazamox ammonium salt formulated as Beyond®, imazapic ammonium salt formulated as Plateau®, imazapyr isopropylamine salt formulated as Arsenal®, imazamethabenz-methyl (technical material) and imazaquin isopropylamine salt formulated as Scepter®/Imagine®.
(§2) Treatment requirements were calculated based upon the rates being tested, the concentration of active ingredient or acid equivalent in the formulation, and a 12 mL application volume at a rate of 187 L/ha.
For treatments comprised of formulated compounds, measured amounts of compounds were placed individually in 25 mL glass vials and diluted in a volume of 1.25% (v/v) Agri-Dex® crop oil concentrated to obtain 12× stock solutions. […] Application solutions were prepared by adding an appropriate amount of each stock solution (e.g., 1 mL) and diluted to the appropriate final concentrations with the addition of 10 mL of an aqueous mixture of 1.25% (v/v) crop oil concentrate so that the final spray solutions contained 1.25+/−0.05% (v/v) crop oil concentrate. […]
For treatments comprised of formulated and technical compounds, weighed amounts of the technical materials were placed individually in 25 mL glass vials and dissolved in a volume of 97:3 v/v acetone/DMSO to obtain 12× stock solutions, and measured amounts of the formulated compounds were placed individually in 25 mL glass vials and diluted in a volume of 1.5% (v/v) crop oil concentrate or water to obtain 12× stock solutions. […] Application solutions were prepared by adding an appropriate amount of each stock solution (e.g., 1 mL) and diluted to the appropriate final concentrations with the addition of an appropriate amount of an aqueous mixture of 1.5% (v/v) crop oil concentrate so that the final spray solutions contained 1.25% (v/v) crop oil concentrate. As required, additional water and/or 97:3 v/v acetone/DMSO was added to individual application solutions so that the final acetone and DMSO concentrations of the application solutions being compared were 8.1% and 0.25%, respectively.
All stock solutions and applications solutions were visually inspected for compound compatibility prior to application. […]

AVEFA = assay: Postemergence foliar-applied, general weed control (Example III); type: in vivo, Avena fatua L.
Experimental: Seeds or nutlets of the desired test plant species were planted in Sun Gro Metro-Mix® 360 planting mixture, which typically has a pH of about 6.0 to about 6.8 and an organic matter content of about 30 percent, in plastic pots with a surface area of 84.6 cm^2 and a volume of 560 cubic centimeters (cm^3). When required to ensure good germination and healthy plants, a fungicide treatment and/or other chemical or physical treatment was applied. The plants were grown for 7-31 days (d) in a greenhouse with an approximate 15 hour (h) photoperiod which was maintained at about 23-29° C. during the day and about 22-28° C. during the night. Nutrients (Peters Excel® 15-5-15 5-Ca 2-Mg) and water were added on a regular basis and supplemental lighting was provided with overhead metal halide 1000-Watt lamps as necessary. The plants were employed for testing when they reached the first, second, or third true leaf stage.
as §2
as §1, with “SC,” for “SC (suspension concentrate),”, “basis. […]” for “basis.”
For treatments comprised of formulated compounds, measured amounts of compounds were placed individually in 25 mL glass vials and diluted in a volume of 1.25% (v/v) Agri-Dex® crop oil concentrated to obtain 12× stock solutions. […]
The treated plants and control plants were placed in a greenhouse as described above and watered by sub-irrigation to prevent wash-off of the test compounds. After approximately 3 weeks, the condition of the test plants as compared with that of the untreated plants was determined visually and scored on a scale of 0 to 100 percent where 0 corresponds to no injury or growth inhibition and 100 corresponds to complete kill. […]

Structure (SMILES): COCc1cnc(C2=NC(C)(C(C)C)C(=O)N2)c(C(=O)O)c1.N (racemic) [Imazamox ammonium, ammonium (±)-2-[4,5-dihydro-4-methyl-4-(1-methylethyl)-5-oxo-1H-imidazol-2-yl]-5-(methoxymethyl)-3-pyridinecarboxylate]
- Visual Weed Control (%) - 25 DAA LEFCH Obs (LEFCH; Imazamox ammonium 11.2 gae/ha): 20%

Structure (SMILES): Cc1cnc(C2=NC(C)(C(C)C)C(=O)N2)c(C(=O)O)c1.N (racemic) [Imazapic ammonium, ammonium (±)-2-[4,5-dihydro-4-methyl-4-(1-methylethyl)-5-oxo-1H-imidazol-2-yl]-5-methyl-3-pyridinecarboxylic acid]
- Visual Weed Control (%) - 25 DAA LEFCH Obs (LEFCH; Imazapic ammonium 17.5 gae/ha): 50%
- Visual Weed Control (%) - 20 DAA LEFCH Obs (LEFCH; Imazapic ammonium 35 gae/ha): 85%
- Visual Weed Control (%) - 19 DAA AVEFA Obs (AVEFA; Imazapic ammonium 35 gae/ha): 70%

Structure (SMILES): CCc1cnc(C2=NC(C)(C(C)C)C(=O)N2)c(C(=O)O)c1.N (racemic) [Imazethapyr ammonium, ammonium (±)-2-[4,5-dihydro-4-methyl-4-(1-methylethyl)-5-oxo-1H-imidazol-2-yl]-5-ethyl-3-pyridinecarboxylate]
- Visual Weed Control (%) - 25 DAA LEFCH Obs (LEFCH; Imazethapyr ammonium 8.75 gae/ha): 20%
- Visual Weed Control (%) - 19 DAA AVEFA Obs (AVEFA; Imazethapyr ammonium 70 gae/ha): 80%

Structure (SMILES): COc1c(Cl)ccc(-c2nc(C(=O)O)c(Cl)c(N)c2F)c1F [Compound A Acid, 4-amino-3-chloro-6-(4-chloro-2-fluoro-3-methoxyphenyl)-5-fluoropyridine-2-carboxylic acid]
- Visual Weed Control (%) - 25 DAA LEFCH Obs (LEFCH; Compound A Acid 4.38 gae/ha): 0%
- Visual Weed Control (%) - 25 DAA LEFCH Obs (LEFCH; Compound A Acid 8.75 gae/ha): 10%
- Visual Weed Control (%) - 25 DAA LEFCH Obs (LEFCH; Compound A Acid 17.5 gae/ha): 45%
- Visual Weed Control (%) - 20 DAA LEFCH Obs (LEFCH; Compound A Acid 19.4 gae/ha): 5%
- Visual Weed Control (%) - 19 DAA AVEFA Obs (AVEFA; Compound A Acid 29 gae/ha): 10%

Structure (SMILES): COc1c(Cl)ccc(-c2nc(C(=O)OCc3ccccc3)c(Cl)c(N)c2F)c1F [Compound A Benzyl Ester, benzyl ester of 4-amino-3-chloro-5-fluoro-6-(4-chloro-2-fluoro-3-methoxy-phenyl)pyridine-2-carboxylic acid]
- Visual Weed Control (%) - 25 DAA LEFCH Obs (LEFCH; Compound A Benzyl Ester 8.75 gae/ha): 70%
- Visual Weed Control (%) - 25 DAA LEFCH Obs (LEFCH; Compound A Benzyl Ester 17.5 gae/ha): 70%
